From patent US20250115558A1, “PYRIDAZINE DERIVATIVES AND RELATED USES” (NodThera Limited, priority 2023, published 2025)
Structures can show the parent of a compound that is named as a salt.

Assays:
[1] = test system: IL-1β release upon NLRP3 activation in peripheral blood mononuclear cells (PBMC); experiment: PBMC IC50 Determination Assay; assay type: cell-based; conditions: Homo sapiens; inhibition of IL-1β release; LPS-primed PBMC stimulated with ATP or nigericin
Experimental: The compounds of the present disclosure were tested for their inhibitory activity against IL-1β release upon NLRP3 activation in peripheral blood mononuclear cells (PBMC).
Protocol A. PBMC were isolated from buffy coats by density gradient centrifugation on Histopaque-1077 (Sigma, cat no. 10771). Isolated cells were seeded into the wells of a 96-well plate and incubated for 3 h with lipopolysaccharide (LPS). Following medium exchange, the compounds of the present disclosure were added (a single compound per well) and the cells were incubated for 30 min. Next, the cells were stimulated either with ATP (5 mM) or nigericin (10 μM) for 1 h and the cell culture media from the wells were collected for further analysis.
The release of IL-1β into the media was determined by a quantitative detection of IL-1β in the media using an IL-1β enzyme-linked immunosorbent assay (ELISA) Ready-SET-Go!, eBioscience cat. No. 88-7261-88. Briefly, in a first step, high affinity binding plates (Corning, Costar 9018 or NUNC Maxisorp Cat No. 44-2404) were coated overnight at 4° C. with specific capture antibody included in the kit (anti-human IL-1β ref. 14-7018-68). Subsequently, plates were blocked with blocking buffer for 1 h at room temperature (rt) and after washing with a buffer (PBS with 0.05% Tween-20) incubated with protein standard and culture media. After 2 h of incubation at rt, plates were washed and incubated with biotinylated detection antibody included in the kit (anti-human IL-1β Biotin ref. 33-7110-68) for 1 h at rt. Plates were washed and incubated with HRP-streptavidin for 30 min at rt and washed again. The signal was developed after addition of 3,3′,5,5′-tetramethylbenzidine-peroxidase (TMB) until colour appeared and the reaction was stopped by 2 M H2SO4. A microplate spectrophotometer (BioTek) was used to detect signals with 450 nm. The detection range of IL-1β ELISA was […].
Protocol B. PBMC were isolated from buffy coats by density gradient centrifugation on Histopaque-1077 (Sigma, cat no. 10771). Isolated cells were seeded into the wells (280,000 cells/well) of a 96-well plate and incubated for 3 h with lipopolysaccharide (LPS, 1 μg/mL diluted 1000× from a 1 mg/mL stock solution). The compounds of the present disclosure were added (a single compound per well) and the cells were incubated for 30 min. Next, the cells were stimulated with ATP (5 mM final concentration diluted 20× from a 100 mM stock solution) for 1 h and the cell culture media from the wells were collected for further analysis.
The release of IL-1β into the media was determined by quantitative detection of IL-1β in the media using HTRF®, CisBio cat. No. 62HIL1BPEH. Briefly, cell culture supernatant were dispensed directly into the assay plate containing antibodies labelled with the HTRF® donor and acceptor. A microplate spectrophotometer (BMG) was used to detect signals at 655 nm and 620 nm. The detection range of IL-1β HTRF® was 39-6500 μg/mL.

[2] = test system: THP-1; experiment: THP-1 IC50 assay; assay type: cell-based; conditions: Homo sapiens; THP-1 cells

With `Cc1cc(Cl)cc(O)c1-c1ccc(CO[C@H]2CCOC2)nn1` [Compound 64, (S)-5-Chloro-3-methyl-2-(6-(((tetrahydrofuran-3-yl)oxy)methyl)pyridazin-3-yl)phenol] the IC50 [1] was under 500 nM and the IC50 [2] was under 500 nM.
`Cc1cc(C(F)(F)F)cc(O)c1-c1ccc(CN[C@H]2CC[C@@](C)(O)CC2)nn1` [Compound 153] was tested, and the IC50 [1] was 1000 to 3000 nM and the IC50 [2] was 1000 to 3000 nM.
`Cc1cc(C(F)(F)F)cc(O)c1-c1ccc(Cn2ccn(C)c2=N)nn1` [Compound 123] gave an IC50 [1] of 1000 to 3000 nM and an IC50 [2] of 500 to 1000 nM.
Compound `Cc1cc(C(F)(F)F)cc(O)c1-c1ccc(CNCc2ccnn2C)nn1` [Compound 126] has an IC50 [1] of 1000 to 3000 nM and an IC50 [2] of 1000 to 3000 nM.
`CNCc1ccc(-c2c(C)cc(C(F)(F)F)cc2O)nn1` [Compound 93] showed an IC50 [1] of 1000 to 3000 nM and an IC50 [2] of 1000 to 3000 nM.
For `Cc1cc(C(F)(F)F)cc(O)c1-c1ccc(CNCC2CCCN2C)nn1` (stereo not shown) [Compound 76, 3-Methyl-2-(6-((((1-methylpyrrolidin-2-yl)methyl)amino)methyl)pyridazin-3-yl)-5-(trifluoromethyl)phenol dihydrochloride], the IC50 [1] was 1000 to 3000 nM and the IC50 [2] was 1000 to 3000 nM.
`Cc1cc(C(F)(F)F)cc(O)c1-c1ccc(CN2CC(C)CC2=O)nn1` (stereo not shown) [Compound 46, 1-((6-(2-Hydroxy-6-methyl-4-(trifluoromethyl)phenyl)pyridazin-3-yl)methyl)-4-methylpyrrolidin-2-one] gave an IC50 [1] of 1000 to 3000 nM and an IC50 [2] of 1000 to 3000 nM.
Compound `Cc1cc(C(F)(F)F)cc(O)c1-c1ccc(C2(N3CCCC3=O)CC2)nn1` [Compound 86, 1-(1-{6-[2-Hydroxy-6-methyl-4-(trifluoromethyl)phenyl]pyridazin-3-yl}cyclopropyl)pyrrolidin-2-one] has an IC50 [1] of 500 to 1000 nM and an IC50 [2] of 500 to 1000 nM.
In the case of `Cc1cc(C(F)(F)F)cc(O)c1-c1ccc(CNCCN2CCOCC2)nn1` [Compound 144], the IC50 [1] is reported as 1000 to 3000 nM and the IC50 [2] is reported as 3000 to 10000 nM.
For `Cc1cc(C(F)(F)F)cc(O)c1-c1ccc(CN2CCCCC2=O)nn1` [Compound 151], the IC50 [1] was under 500 nM and the IC50 [2] was under 500 nM.
With `Cc1cc(OC(F)F)cc(O)c1-c1ccc(CNC2CCOCC2)nn1` [Compound 70, 5-(Difluoromethoxy)-3-methyl-2-(6-(((tetrahydro-2H-pyran-4-yl)amino)methyl)pyridazin-3-yl)phenol] the IC50 [1] was 1000 to 3000 nM and the IC50 [2] was 1000 to 3000 nM.
For `Cc1cc(CNC2CCOCC2)nnc1-c1ccc(C(F)(F)F)cc1O` [Compound 11, 2-(4-Methyl-6-(((tetrahydro-2H-pyran-4-yl)amino)methyl)pyridazin-3-yl)-5-(trifluoromethyl)phenol], the IC50 [1] was 1000 to 3000 nM and the IC50 [2] was 1000 to 3000 nM.
`Cc1cc(F)cc(O)c1-c1ccc(CNC2CCOCC2)nn1` [Compound 52, 5-Fluoro-3-methyl-2-(6-(((tetrahydro-2H-pyran-4-yl)amino)methyl)pyridazin-3-yl)phenol] showed an IC50 [1] of 3000 to 10000 nM and an IC50 [2] of 3000 to 10000 nM.
For `Cc1cc(C(F)(F)F)cc(O)c1-c1ccc(CN[C@H]2CCOC2)nn1` [Compound 33, (S)-3-methyl-2-(6-(((tetrahydrofuran-3-yl)amino)methyl)pyridazin-3-yl)-5-(trifluoromethyl)phenol], the IC50 [1] was under 500 nM and the IC50 [2] was under 500 nM.
With `Cc1cc(Cl)cc(O)c1-c1ccc(COC2COC2)nn1` [Compound 65, 5-Chloro-3-methyl-2-(6-((oxetan-3-yloxy)methyl)pyridazin-3-yl)phenol] the IC50 [1] was under 500 nM and the IC50 [2] was 500 to 1000 nM.
For `Cc1cc(C(F)(F)F)cc(O)c1-c1ccc(COC2CCCNC2)nn1` (stereo not shown) [Compound 18, 3-Methyl-2-(6-((piperidin-3-yloxy)methyl)pyridazin-3-yl)-5-(trifluoromethyl)phenol], the IC50 [1] was 500 to 1000 nM and the IC50 [2] was 1000 to 3000 nM.
In the case of `Cc1cc(C(F)(F)F)cc(O)c1-c1ccc(CNCC(C)(C)O)nn1` [Compound 117], the IC50 [1] is reported as 500 to 1000 nM and the IC50 [2] is reported as 1000 to 3000 nM.
`Cc1cc(C(F)(F)F)cc(O)c1-c1ccc(CNCC2COC2)nn1` [Compound 104] showed an IC50 [1] of 1000 to 3000 nM and an IC50 [2] of 1000 to 3000 nM.
In the case of `Cc1cc(C(F)(F)F)cc(O)c1-c1ccc(CN2CCCC2)nn1` [Compound 133], the IC50 [1] is reported as under 500 nM and the IC50 [2] is reported as 500 to 1000 nM.
`Cc1cc(C(F)(F)F)cc(O)c1-c1ccc(CN[C@@H]2CCOC2)nn1` [Compound 32, (R)-3-Methyl-2-(6-(((tetrahydrofuran-3-yl)amino)methyl)pyridazin-3-yl)-5-(trifluoromethyl)phenol] gave an IC50 [1] of under 500 nM and an IC50 [2] of 500 to 1000 nM.
`Cc1cc(C(F)(F)F)cc(O)c1-c1ccc(COC2CCOCC2)nn1` [Compound 17, 3-methyl-2-(6-(((tetrahydro-2H-pyran-4-yl)oxy)methyl)pyridazin-3-yl)-5-(trifluoromethyl)phenol] was tested, and the IC50 [1] was 3000 to 10000 nM and the IC50 [2] was 1000 to 3000 nM.
For `CO[C@@H]1CCN(Cc2ccc(-c3c(C)cc(C(F)(F)F)cc3O)nn2)C1` [Compound 39, (R)-2-(6-((3-Methoxypyrrolidin-1-yl)methyl)pyridazin-3-yl)-3-methyl-5-(trifluoromethyl)phenol], the IC50 [1] was 500 to 1000 nM and the IC50 [2] was 1000 to 3000 nM.
Compound `Cc1cc(NCc2ccc(-c3c(C)cc(C(F)(F)F)cc3O)nn2)sn1` [Compound 84, 3-Methyl-2-(6-{[(3-methyl-1,2-thiazol-5-yl)amino]methyl}pyridazin-3-yl)-5-(trifluoromethyl)phenol] has an IC50 [1] of 500 to 1000 nM and an IC50 [2] of 500 to 1000 nM.
`Cc1cc(C(F)(F)F)cc(O)c1-c1ccc(CNC2CCOCC2)nn1` [Compound 1, 3-Methyl-2-(6-(((tetrahydro-2H-pyran-4-yl)amino)methyl)pyridazin-3-yl)-5-(trifluoromethyl)phenol] gave an IC50 [1] of 500 to 1000 nM and an IC50 [2] of 500 to 1000 nM.
`Oc1cc(C(F)(F)F)cc(F)c1-c1ccc(CNC2CCOCC2)nn1` [Compound 42, 3-Fluoro-2-(6-(((tetrahydro-2H-pyran-4-yl)amino)methyl)pyridazin-3-yl)-5-(trifluoromethyl)phenol] showed an IC50 [1] of 3000 to 10000 nM and an IC50 [2] of 3000 to 10000 nM.
With `Cc1cc(C(F)(F)F)cc(O)c1-c1ccc(CNc2cscn2)nn1` [Compound 28] the IC50 [1] was 500 to 1000 nM and the IC50 [2] was 500 to 1000 nM.
`Cc1cc(C(F)(F)F)cc(O)c1-c1ccc(COC2CCN(C)CC2)nn1` [Compound 45, 3-Methyl-2-(6-(((1-methylpiperidin-4-yl)oxy)methyl)pyridazin-3-yl)-5-(trifluoromethyl)phenol hydrochloride] was tested, and the IC50 [1] was 1000 to 3000 nM and the IC50 [2] was 1000 to 3000 nM.
`Cc1cc(C(F)(F)F)cc(O)c1-c1ccc(Cn2ccc(=N)nc2)nn1` [Compound 120] gave an IC50 [1] of at least 10000 nM and an IC50 [2] of 3000 to 10000 nM.
`Cc1cc(C(F)(F)F)cc(O)c1-c1ccc(CNc2conc2C)nn1` [Compound 55, 3-Methyl-2-(6-(((3-methylisoxazol-4-yl)amino)methyl)pyridazin-3-yl)-5-(trifluoromethyl)phenol] gave an IC50 [1] of 500 to 1000 nM and an IC50 [2] of 500 to 1000 nM.
`Cc1cc(C(F)(F)F)cc(O)c1-c1ccc(CNC2CCCN(C)C2)nn1` (stereo not shown) [Compound 22] gave an IC50 [1] of 1000 to 3000 nM and an IC50 [2] of 1000 to 3000 nM.
In the case of `Oc1cc(Cl)cc(Cl)c1-c1ccc(CNC2CCOCC2)nn1` [Compound 36, 3,5-Dichloro-2-(6-(((tetrahydro-2H-pyran-4-yl)amino)methyl)pyridazin-3-yl)phenol], the IC50 [1] is reported as 500 to 1000 nM and the IC50 [2] is reported as 1000 to 3000 nM.
Work on `Cc1cc(C(F)(F)F)cc(O)c1-c1ccc(CNC2CCOC(C)C2)nn1` (stereo not shown) [Compound 139] yielded an IC50 [1] of 500 to 1000 nM and an IC50 [2] of 1000 to 3000 nM.
`Cc1cc(C(F)(F)F)cc(O)c1-c1ccc(CNC2CCCOC2)nn1` (stereo not shown) [Compound 102] showed an IC50 [1] of 500 to 1000 nM and an IC50 [2] of 1000 to 3000 nM.
In the case of `Cc1cc(C(F)(F)F)cc(O)c1-c1ccc(CN[C@H]2CC(=O)N(C)C2)nn1` [Compound 49, (S)-4-(((6-(2-Hydroxy-6-methyl-4-(trifluoromethyl)phenyl)pyridazin-3-yl)methyl)amino)-1-methylpyrrolidin-2-one], the IC50 [1] is reported as under 500 nM and the IC50 [2] is reported as under 500 nM.
`Cc1cc(C(F)(F)F)cc(O)c1-c1ccc(CNC2CCS(=O)(=O)CC2)nn1` [Compound 137] showed an IC50 [1] of 1000 to 3000 nM and an IC50 [2] of 1000 to 3000 nM.
With `COCCNCc1ccc(-c2c(C)cc(C(F)(F)F)cc2O)nn1` [Compound 115] the IC50 [1] was 1000 to 3000 nM and the IC50 [2] was 1000 to 3000 nM.
For `Cc1cc(C(F)(F)F)cc(O)c1-c1ccc(CNCCC(C)(C)O)nn1` [Compound 118], the IC50 [1] was 1000 to 3000 nM and the IC50 [2] was 3000 to 10000 nM.
`Cc1cc(C(F)(F)F)cc(O)c1-c1ccc(CN(C)C)nn1` [Compound 94] gave an IC50 [1] of 1000 to 3000 nM and an IC50 [2] of 1000 to 3000 nM.
